Results on two compounds are retold here after patent publication EP0072121A1, “Beta-lactam antibiotics” (BEECHAM GROUP PLC, priority 1981, dated 1983).

Converted amounts (≈) assume the structure as drawn. Bounds are passed on as bounds.

Broadly, the MIC is the smallest concentration in the dilution series that meets the test's criterion for growth inhibition. A low value points to greater potency.

Holding throughout (assay): standard MIC test
Type in all cases: cell-based

Experiment [1] concerns Staphylococcus aureus Oxford. An excerpt: (§1) In a standard MIC test the compound of Examples 1 and 2 afforded the following data (µg/ml).
For experiment [2], the system named is Escherichia coli O111 [E8].
Description: as §1

Another experiment concerns Escherichia coli JT20.
Description: as §1

The test system of experiment [3] is Klebsiella aerogenes Ba95.
Description: as §1

In a further experiment the test system is Proteus rettgeri WM16. Particulars: Providencia rettgeri.
Description: as §1

The next experiment has as its system Proteus vulgaris W091.
Description: as §1

Experiment [4] relates to Staphylococcus aureus Russell MB9.
Description: as §1

The next experiment relates to Escherichia coli JT410.
Description: as §1

For experiment [5], the system named is Proteus mirabilis 977 [13].
Description: as §1

In another experiment the test system is Proteus morganii 1580. Particulars: Morganella morganii.
Description: as §1

Experiment [6] has as its system Escherichia coli JT39 [E96].
Description: as §1

Experiment [7] concerns Streptococcus pneumoniae CN33.
Description: as §1

In experiment [8] the test system is Salmonella typhimurium CT10. As to conditions: Salmonella enterica.
Description: as §1

A further experiment deals with Pseudomonas Dalgleish.
Description: as §1

In experiment [9] the test system is Enterobacter cloacae N1 [T753].
Description: as §1

Another experiment concerns Bacillus subtilis A.
Description: as §1

Another experiment concerns Citrobacter freundii E8.
Description: as §1

For experiment [10], the system named is Klebsiella aerogenes A [T767].
Description: as §1

Experiment [11] has as its system Pseudomonas aeruginosa A [11].
Description: as §1

The subject of experiment [12] is Streptocuccus pyogenes CN10.
Description: as §1

A further experiment concerns Escherichia coli ESS.
Description: as §1

Another experiment has as its system Shigella sonnei MB11967.
Description: as §1

The test system of the next experiment is Streptocuccus faecalis I.
Description: as §1

Experiment [13] has as its system Staphylococcus aureus 1517.
Description: as §1

As to `CC(=N)NCCOC(=O)/C=C\SC1=C(C(=O)O)N2C(=O)[C@@H]([C@H](C)O)[C@H]2C1` [Ex.1, (5R,6R)-3-[(Z)-2-Acetimidoylaminoethyloxycarbonyl-ethenylthio]-6-[(S)-1-hydroxyethyl]-7-oxo-1-azabicyclo[3.2.0]hept-2-ene-2-carboxylic acid], the MIC in experiment [1] was at most 0.1 µg/mL; in experiment [2], 0.2 µg/mL (≈ 0.522 µM); in the experiment with Escherichia coli JT20, 3.1 µg/mL (≈ 8.09 µM); in [3], 3.1 µg/mL (≈ 8.09 µM); in the experiment with Proteus rettgeri WM16, 1.6 µg/mL (≈ 4.17 µM); against Proteus vulgaris W091, 3.1 µg/mL (≈ 8.09 µM). Besides, the MIC in experiment [4] is at most 0.1 µg/mL; against Escherichia coli JT410, 0.2 µg/mL (≈ 0.522 µM); in experiment [5], 0.4 µg/mL (≈ 1.04 µM); in the experiment with Proteus morganii 1580, 1.6 µg/mL (≈ 4.17 µM); in experiment [6], 0.2 µg/mL (≈ 0.522 µM); in [7], at most 0.1 µg/mL. Besides, the MIC was 0.2 µg/mL (≈ 0.522 µM) in experiment [8]; 25 µg/mL (≈ 65.2 µM) with Pseudomonas Dalgleish; 3.1 µg/mL (≈ 8.09 µM) in [9]; at most 0.1 µg/mL with Bacillus subtilis A; 0.4 µg/mL (≈ 1.04 µM) in the experiment on Citrobacter freundii E8; 0.2 µg/mL (≈ 0.522 µM) in experiment [10]. In addition, the MIC in experiment [11] was 25 µg/mL (≈ 65.2 µM); in experiment [12], at most 0.1 µg/mL; against Escherichia coli ESS, at most 0.1 µg/mL; in the experiment on Shigella sonnei MB11967 it was 0.2 µg/mL (≈ 0.522 µM); with Streptocuccus faecalis I it was at most 0.1 µg/mL; in experiment [13], 0.8 µg/mL (≈ 2.09 µM).
On to `CC(=N)NCCOC(=O)/C=C\SC1=C(C(=O)O)N2C(=O)[C@H]([C@@H](C)O)[C@H]2C1` [Ex.2, (5R,6S)-3-[(S)-2-Acetimidoylaminoethyloxycarbonyl-ethenylthio]-6-[(R)-1-hydroxyethyl]-7-oxo-1-azabicyclo [3.2.0]hept-2-ene-2-carboxylic acid], for which the minimal inhibitory concentration (MIC) was at most 0.1 µg/mL in experiment [1]; 0.2 µg/mL (≈ 0.522 µM) in experiment [2]; 0.2 µg/mL (≈ 0.522 µM) with Escherichia coli JT20; 0.4 µg/mL (≈ 1.04 µM) in [3]; 0.8 µg/mL (≈ 2.09 µM) against Proteus rettgeri WM16; 0.8 µg/mL (≈ 2.09 µM) in the experiment on Proteus vulgaris W091. Besides, the MIC in experiment [4] is at most 0.1 µg/mL; with Escherichia coli JT410 it was 0.2 µg/mL (≈ 0.522 µM); in experiment [5] it was 0.8 µg/mL (≈ 2.09 µM); against Proteus morganii 1580, 1.6 µg/mL (≈ 4.17 µM); in experiment [6], 0.2 µg/mL (≈ 0.522 µM); in experiment [8], 0.2 µg/mL (≈ 0.522 µM). In addition, the MIC is 25 µg/mL (≈ 65.2 µM) with Pseudomonas Dalgleish; 0.8 µg/mL (≈ 2.09 µM) in experiment [9]; below 0.1 µg/mL against Bacillus subtilis A; 0.4 µg/mL (≈ 1.04 µM) in the experiment with Citrobacter freundii E8; 0.2 µg/mL (≈ 0.522 µM) in experiment [10]; 25 µg/mL (≈ 65.2 µM) in experiment [11]. Further, the MIC against Escherichia coli ESS amounted to 0.2 µg/mL (≈ 0.522 µM); against Shigella sonnei MB11967, 0.2 µg/mL (≈ 0.522 µM); in the experiment on Streptocuccus faecalis I, 0.2 µg/mL (≈ 0.522 µM); in [13], 1.6 µg/mL (≈ 4.17 µM).
